The source of these data is patent publication US20110052722A1, “Toleration Iron Supplement Compositions” (priority 2005, published 2011).

Series [1] deals with Sprague Dawley Crl:CD(SD) rats. The experiment in a line: Repeated daily oral gavage study in rats: hematology, serum iron, gross necropsy. The conditions noted are these: once per day oral gavage. In kind it is in vivo. The procedure: The test material solution or vehicle control was administered once per day by oral gavage administration, and individual dose volumes were calculated based on the most recent body weight data for each animal.
General health/mortality and moribundity checks were performed twice daily, and detailed clinical observations were performed on days 1, 8, and 15 prior to dosing. Hematology parameters were evaluated for all animals on days 1, 7, and 14. Blood collection for serum iron concentration evaluation was performed on these days as well, and blood samples were obtained via the orbital plexus while the animals were under light isoflurane anesthesia. All animals were subjected to complete gross necropsy examination at scheduled euthanasia.
Blood samples for hematology testing were collected in volumes of about 200 μL in tubes containing anticoagulant K2EDTA, and were evaluated for red blood cell count (RBC), hemoglobin concentration (Hb), hematocrit (Hct), mean corpuscular volume (MCV), mean corpuscular hemoglobin concentration (MCHC), mean corpuscular hemoglobin (MCH), reticulocyte count (Retic), red blood cell morphology, white blood cell count (WBC), neutrophil count (Neut), lymphocyte count (Lymph), monocyte count (Mono), eosinophil count (Eos), and basophil count (Baso). Serum iron was measured by taking about 1 mL blood samples in a serum separator tube.

The conditions of series [2]: total administration should not exceed; cited from earlier work.
For series [3] the following is noted: cited from earlier work.
[4] abbreviates: versus ferrous sulfate and/or ferrous fumarate, Newton et al. 1980, Piccinni et al. 1982.

For `O=C([O-])/C=C/C(=O)[O-].[Fe+2]` [ferrous fumarate], the “immune response (segmented neutrophils, platelets, lymphocytes)” value in series [1] (Group 2 500 mg Fe/kg, Group 3 250 + 250 mg Fe/kg, hematology days 1, 7, 14) is “about the same”. In series [1] (Group 2 500 mg Fe/kg, Group 3 250 + 250 mg Fe/kg, scheduled euthanasia), the “gross internal findings at necropsy” value was “body fat depletion, thyroid nodules, reddened mandibular lymph nodes, reddened stomach mucosa, small thymus, foci on the thymus, and dark fecal matter”. Besides, the serum iron levels entry in series [1] (ferrous fumarate 500 mg Fe/kg (Group 2), ferrous fumarate 250 + PIC 250 mg Fe/kg (Group 3), blood on days 1, 7, 14) is “significant increases”. The toxicity limits in series [2] was 200 to 250 mg/kg.
For the molecule polysaccharide iron complex [PIC], in series [3] (setting [4]), the “efficacy at increasing hemoglobin and hematocrit values” is reported as “equivalent efficacy”; the tolerability result is “better tolerated”. Further, the gastrointestinal side effects result in series [3] (versus ferrous sulfate, Johnson et al., Niferex-150 in ESRD patients receiving EPOGEN) is listed as “fewer gastrointestinal side effects”.
